From PubChem BioAssay AID602234 (The Scripps Research Institute Molecular Screening Center, 2012)
Activity calls are given as the source filed them. The rule behind the calls is not given here.

Assay: SRC3 coactivator transcriptional activity inhibitors, dose response, counter-screen for SRC1 inhibitor project, cell-based, luminescence (AID 602234);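 note: HEK293 cells co-transfected with pGL4.31 reporter and pBIND-SRC3 fusion vector; potency for inhibition of reporter luminescence with Gossypol as full inhibition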
Details: transfected HEK293 cells, counter-screen luciferase reporter

Compound	IC50
COc1cc(/C=C2\SC(N)=NC2=O)cc(OC)c1	7.14 µM
CC(C)(C)c1cc(C(=O)N/N=C/c2ccc(O)cc2)n(-c2ccccc2)n1	27.1 µM (inactive)
CC(=O)NC(c1cc(Cl)c2cccnc2c1O)C1CC1 (stereo not drawn)	6.13 µM
Cc1ccc(N(Cc2cc(=O)[nH]c3ccccc23)C(=O)CCl)c(C)c1	2.67 µM
O=C(CCC1CCCC1)Nc1ccc(C(=O)NCc2cccnc2)cc1	34.2 µM (inactive)
Cc1ccc(NC(=O)CCC(=O)N/N=C/c2ccc(O)cc2O)cc1	13.5 µM (inactive)
CCOc1ccc(-c2noc(CCC(=O)O)n2)cc1	15.2 µM (inactive)
Cc1cc(/C=C2\Cc3ccccc3C2=O)c(C)n1-c1ccccc1	8.76 µM
COc1ccccc1N(C(=O)CCl)c1cn(C(C)=O)c2ccccc12	3.76 µM
Cc1ccc(OCC(=O)c2cc(C)n(Cc3cccs3)c2C)c([N+](=O)[O-])n1	5.23 µM
Cc1ccc(S(=O)(=O)NC(CC(C)C)C(=O)NCC(c2ccco2)N2CCCCC2)cc1 (stereo not drawn)	3.11 µM
c1cnc2ccc(-n3ccnc3)cc2c1	7.69 µM
Cc1nc2ccccn2c1-c1ccnc(=S)[nH]1	4.25 µM
CCN(CC)CCNC(=O)c1ccc(NC(=O)C2CCN(c3ncnc4sc(C)c(C)c34)CC2)cc1	3.94 µM
NC(=S)NN=Cc1nccc2c(N)cccc12	4.45 µM
CCc1ccc(/C=C2\SC(=S)N(CCCC(=O)NCCCN3CCOCC3)C2=O)cc1	3.28 µM
Cc1cc(C)nc(SCc2ccc(C(=O)N/N=C/c3cccc(O)c3O)cc2)n1	4.72 µM
Cc1c(/C(O)=C2/C(=O)C(=O)N(Cc3cccnc3)C2c2ccccn2)cnn1-c1ccccc1 (stereo not drawn)	6.55 µM
COc1ccc(/C=C2\CC/C(=C\c3ccc(OC)c(OC)c3)C2=O)cc1OC	5.96 µM
O=C(COC(=O)c1ccc[nH]c1=O)Nc1ccc(N2CCCCC2)cc1	5.35 µM
c1nc2sc3c(c2c2nnnn12)CCCC3	9.84 µM
CC(C)Cn1c(N)c(C(=O)COC(=O)c2cc3ccccc3cc2O)c(=O)n(C)c1=O	> 12 µM (inactive)

Compound	IC50
CC(NC(=O)COC(=O)c1cccs1)c1ccccc1 (stereo not drawn)	> 35.9 µM (inactive)
O=C(O)c1ccccc1-c1c2cc(I)c(=O)c(I)c-2oc2c(I)c(O)c(I)cc12	> 35.9 µM (inactive)
Cc1ccc(C)c(NC(=O)c2ccccc2NS(=O)(=O)c2cc([N+](=O)[O-])ccc2C)c1	1.44 µM
CCOc1cc(C(N)=O)cc(Br)c1OC	6.86 µM
O=C(Nc1nc(-c2ccccn2)cs1)c1cccc(-n2cnnn2)c1	21.7 µM (inactive)
CCCCC(=O)Nc1cccn2ncnc12	10.9 µM (inactive)
Cc1cccc(C)c1-n1nnnc1C(c1cccs1)N1CCC2(CC1)C(=O)NCN2c1ccccc1 (stereo not drawn)	18.9 µM (inactive)
COc1cccc(NC(=O)CN(C)CC(=O)Nc2ccc(Cl)cc2[N+](=O)[O-])c1	17.8 µM (inactive)
COC(CN(C(=O)CCl)C(C(=O)NC1CCCCC1)c1ccccc1C)OC (stereo not drawn)	3.76 µM
COc1ccccc1CNC(=O)C(=O)NCCC1CCCCN1S(=O)(=O)c1ccc(C)cc1 (stereo not drawn)	10.2 µM (inactive)
COc1cc2c3c([nH]c2cc1F)C(=O)NCC3	3.73 µM
NC(=O)c1cc(Sc2ccccc2)nc2ccccc12	10.9 µM (inactive)
C=CCNc1ncnc2ccc(Br)cc12	2.3 µM
Cc1nn(CC(=O)N2CCN(c3cccc(C(F)(F)F)c3)CC2)c(=O)c2cccn12	5.11 µM
COc1ccc2c(c1)-c1c(ssc1=S)C(C)(C)N2C(=O)CSC1=NCCS1	11.2 µM (inactive)
CCn1c(Oc2cccc(Br)c2)nc2c1c(=O)n(C)c(=O)n2C	17 µM (inactive)
Cc1ccc2occ(/C=N/NC(=O)c3ccncc3)c(=O)c2c1	15.3 µM (inactive)
CC(C)(C)OC(=O)NCC(=O)Oc1cc2oc(=O)cc(-c3ccccc3)c2cc1Cl	11.5 µM (inactive)
Cc1ccc(O)c(C(=O)c2cnn(C(=O)COc3ccc(Cl)cc3)c2)c1	7.96 µM
Cc1ccc(NC(=O)C2CCN(c3ncnc4sc(C)c(C)c34)CC2)cc1S(=O)(=O)N(C)C	> 12 µM (inactive)
NC(=S)NN=Cc1ccc(OC(=O)COc2cc(Cl)c(Cl)cc2Cl)cn1	7.06 µM
CC1CCCCN1c1ncnc2ccccc12 (stereo not drawn)	8.39 µM

Compound	IC50
Cc1ccc(S(=O)(=O)Nc2c(NC3CCCCC3)c3ccccc3oc2=O)c(C)c1	23.1 µM (inactive)
COc1cccc(/C=N/NC(=O)CNC(=O)C2COc3ccccc3O2)c1O (stereo not drawn)	4.31 µM
C=CCOc1ccc(/C=C2\SC(=S)N(CCC(=O)O)C2=O)cc1	3.47 µM
O=C(CCCOc1ccc(Cl)cc1Cl)N/N=C/c1ccccc1O	6.32 µM
CC(=O)NC(c1cc(Cl)c2cccnc2c1O)C(C)C (stereo not drawn)	6.32 µM
CN(C)C=Nc1c(C(=O)c2ccccc2)sc2nccc(N(C)C)c12	6.82 µM
O=C(CCl)N1N=C(c2ccco2)CC1c1cccs1 (stereo not drawn)	0.694 µM
COc1ccc(Cc2nnc(SCc3ccc([N+](=O)[O-])cc3)o2)cc1	5.53 µM
CN(CC(=O)Nc1ccc(Cl)c(C(F)(F)F)c1)C(=O)C1CC(=O)N(c2ccc3c(c2)OCCO3)C1 (stereo not drawn)	7.04 µM
O=[N+]([O-])c1cccc2c1ccc1ncccc12	10.3 µM (inactive)
CCn1c(Oc2ccc(F)cc2)nc2c1c(=O)n(C)c(=O)n2C	3.24 µM
CCOC(=O)c1cccc2c1-c1ccccc1/C2=N/O	3.73 µM
Cc1sc2ncnc(N3CCC(C(=O)N(C)CC(=O)Nc4cccc(F)c4)CC3)c2c1C	8.1 µM
C=C1C(=O)[C@@]23C[C@H]4[C@@H]5[C@@]6(C)CCC[C@@]57[C@@H]2[C@@H](O)[C@@H]1C[C@H]3[C@H]7N4C6	4.39 µM
O=C1NCCc2c1[nH]c1ccc([N+](=O)[O-])cc21	8.25 µM
O=C(CCl)N(c1ccccc1)C1CCS(=O)(=O)C1 (stereo not drawn)	1.74 µM
Oc1ccc(C=NNc2ccccn2)c(O)c1	6.53 µM
CCn1ccnc1CN(C)Cc1cn[nH]c1-c1ccc(F)cc1F	8.02 µM
N#Cc1c(-c2ccccc2)c(C#N)c2nc3ccccc3n2c1N	21.9 µM (inactive)
Cc1cccn2c(=O)c3cc(C(=O)NCCN4CCOCC4)c(=N)n(Cc4cccnc4)c3nc12	12.7 µM (inactive)
CCC(C)(C)n1nnnc1CN1CCC(n2c(C)nc3cc(C(F)(F)F)ccc32)CC1	> 35.9 µM (inactive)
Cc1nc(N2CCC(C(N)=O)CC2)c2c(-c3cccs3)csc2n1	3.31 µM

Compound	IC50
CCCS(=O)(=O)Nc1ccc(Nc2c3ccccc3nc3ccccc23)c(OC)c1	1.01 µM
Cc1ccccc1C(=O)/C(C#N)=N/Nc1c(C)n(C)n(-c2ccccc2)c1=O	3.53 µM
COc1ccc(-c2ncncc2-c2ccccc2)c(O)c1	4.24 µM
CCOc1cccc(/C=N/NC(=O)c2cccnc2)c1O	9.67 µM
COc1ccc(/C=C2/SC(=S)N(CCC(=O)O)C2=O)cc1	1.07 µM
O=C(Nc1cccc(C(F)(F)F)c1)Nc1nnc([C@@H]2C[C@H](O)[C@@H](CO)O2)s1	4.17 µM
CC[C@@]1(O)C(=O)OCc2c1cc1n(c2=O)Cc2cc3c(NC(=O)CN)cccc3nc2-1	1.05 µM
CCOc1ccccc1-n1c(SCC(=O)Nc2ccccc2C(=O)O)nc2ccccc2c1=O	9.64 µM
COc1cccc(C2=CC(=O)CC(C)(C)C2)c1	6.27 µM
CCCCC(CC)COCCCN=Cc1c(O)[nH]c(=S)[nH]c1=O (stereo not drawn)	5.74 µM
CCN(c1ccccc1)S(=O)(=O)c1cc(C(=O)Nc2ccc(Br)cc2)ccc1F	6.6 µM
N#Cc1c2ccc(O)cc2n2ccccc12	1.38 µM
O=C(CSc1nc(-c2cccs2)cc(C(F)(F)F)n1)Nc1cc(OCC(F)(F)C(F)F)cc([N+](=O)[O-])c1	> 35.9 µM (inactive)
Cn1c(=O)c2[nH]c(COc3ccc(C(C)(C)C)cc3)nc2n(C)c1=O	3.85 µM
CN(C)c1ccc(Nc2ncnc3ccc(Br)cc23)cc1	2.09 µM
O=C(CCl)NC(Cc1ccccc1)c1ccccc1 (stereo not drawn)	6.42 µM
COC(=O)N(NC(=O)C(O)(CCC(C)C)CCC(C)C)c1ccccc1	> 35.9 µM (inactive)
CCn1c2ccccc2c2cnc(N=CN(C)C)c(C#N)c21	11.3 µM (inactive)
O=C(NC1CCCCC1)C(c1cccnc1)N(C(=O)CCl)c1cccc(Cl)c1 (stereo not drawn)	0.503 µM
C=CCn1c(Oc2ccccc2F)nc2c1c(=O)n(C)c(=O)n2C	3.36 µM
COc1ccccc1-c1cc2nc(-c3ccccc3)cc(N3CCN(C(=O)c4ccco4)CC3)n2n1	5.66 µM
COc1cccc(CNc2ncnc3ccc(-c4c(C)noc4C)cc23)c1	9.92 µM

Compound	IC50
Fc1ccc(CSc2nnc(-c3ccncc3)o2)cc1	2.69 µM
O=C(N/N=C/c1cc([N+](=O)[O-])ccc1O)c1cccc(N2CCCC2=O)c1	> 12 µM (inactive)
CS(=O)(=O)Nc1cccc(NC(=O)C2Cc3c(-c4ccco4)ccnc3O2)c1 (stereo not drawn)	> 12 µM (inactive)
CC(=O)/C(N=Nc1ccc2c(c1)OCCO2)=C(\C)O	3.11 µM
COc1ccc2ncn(-c3ccccc3)c2c1	2.99 µM
S=C(c1ccc(-c2ccccc2)cc1)N1CCOCC1	7.59 µM
Cc1ccc(/C=C2\SC(=S)N(CCCC(=O)NC3CCCC3)C2=O)cc1	1.58 µM
N#Cc1cc2ccncc2c2ccccc12	4.76 µM
Fc1cccc(CSc2nnc3ccc(-c4ccncc4)nn23)c1	> 35.8 µM (inactive)
O=C(N/N=C(\c1ccccc1)c1ccccn1)c1ccccc1Cl	4.57 µM
CCOC(=O)c1c(NC(=O)C(C)N2CCN(C(=O)c3ccco3)CC2)sc2c1CCCC2 (stereo not drawn)	9.89 µM
CCN(C(=O)c1cc(S(=O)(=O)N2CCCCC2)c[nH]1)c1ccc(OC)cc1	8 µM
Cc1ccc2occ(/C=N/NC(=O)[C@@H](N)Cc3ccccc3)c(=O)c2c1	6.9 µM
COc1cc2c(cc1OC)C(NC(=O)C(F)(F)F)CNC2=O (stereo not drawn)	2.62 µM
COc1ccc(Nc2ncnc3ccc(Br)cc23)c(OC)c1	2.75 µM
Cc1nc2sc(C(N)=O)c(N)c2c(C)c1CC(=O)c1ccccc1	2.63 µM
CN(Cc1cnc2nc(N)nc(N)c2n1)c1ccc(C(=O)NC(CCC(=O)O)C(=O)O)c2ccccc12 (stereo not drawn)	0.0186 µM
Nc1ccn(C2OC(CO)C(O)C2O)c(=O)n1 (stereo not drawn)	6.77 µM
COc1cc(C2c3cc4c(cc3C(OC3OC5COC(c6cccs6)OC5C(O)C3O)C3COC(=O)C23)OCO4)cc(OC)c1O (stereo not drawn)	0.0913 µM
CC(C)n1c(SCC(=O)Nc2nc3c(s2)CCCC3)nc2c1c(=O)n(C)c(=O)n2C	5.86 µM
